Measured values as given in the supplement of paper PMC13207355.

How the values were obtained:
Details in all cases: exposure time: 72 h
[1] = system: E13 (patient-derived glioblastoma stem cells of classical subtype); experiment: surviving fraction (nuclei count normalised to DMSO); higher = more cells surviving (less toxic)
[2] = system: E21 (patient-derived glioblastoma stem cells of mesenchymal subtype); experiment: as above
[3] = system: E28 (patient-derived glioblastoma stem cells of classical subtype); experiment: as above
[4] = system: E31 (patient-derived glioblastoma stem cells of proneural subtype); experiment: as above
[5] = system: E34 (patient-derived glioblastoma stem cells of proneural subtype); experiment: as above
[6] = system: E57 (patient-derived glioblastoma stem cells of mesenchymal subtype); experiment: as above
[7] = system: FT3469 (normal neural stem cell line); experiment: as above
[8] = system: E13; experiment: phenotypic distance (Euclidean, principal components) from DMSO controls (arbitrary units); higher = stronger morphological change
[9] = system: E21; experiment: as above
[10] = system: E28; experiment: as above
[11] = system: E31; experiment: as above
[12] = system: E34; experiment: as above
[13] = system: E57; experiment: as above
[14] = system: FT3469; experiment: as above
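For phenotypic distance (Euclidean, principal components) from DMSO controls in this document: cell Painting imaging in 384-well plates, CellProfiler features reduced to at least 20 principal components, Euclidean distance versus same-plate DMSO vehicle wells (0.1% v/v), median over six images per well.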
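For surviving fraction (nuclei count normalised to DMSO) in this document: nuclei counted by high-content imaging of Hoechst-stained cells in laminin-coated 384-well plates, relative to 0.1% DMSO vehicle wells, with staurosporine as cell-death control.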

CC(C)(Oc1ccc(C2CC2(Cl)Cl)cc1)C(=O)O (stereo unspecified) [Ciprofibrate]
Details	phenotypic distance	surviving fraction
[1], 4.1 nM	–	0.885
[1], 12.3 nM	–	0.896
[1], 37 nM	–	1.05
[1], 111.1 nM	–	0.961
[1], 333.3 nM	–	1.07
[1], 1000 nM	–	1.13
[1], 3000 nM	–	1
[2], 4.1 nM	–	0.982
[2], 12.3 nM	–	0.945
[2], 37 nM	–	0.898
[2], 111.1 nM	–	0.962
[2], 333.3 nM	–	0.951
[2], 1000 nM	–	1.01
[2], 3000 nM	–	0.986
[3], 4.1 nM	–	1.06
[3], 12.3 nM	–	0.804
[3], 37 nM	–	1.11
[3], 111.1 nM	–	1.06
[3], 333.3 nM	–	1.12
[3], 1000 nM	–	1.02
[3], 3000 nM	–	1.31
[4], 4.1 nM	–	1.18
[4], 12.3 nM	–	0.902
[4], 37 nM	–	0.955
[4], 111.1 nM	–	0.771
[4], 333.3 nM	–	1.06
[4], 1000 nM	–	0.889
[4], 3000 nM	–	1.06
[5], 4.1 nM	–	1.07
[5], 12.3 nM	–	0.868
[5], 37 nM	–	0.894
[5], 111.1 nM	–	0.945
[5], 333.3 nM	–	0.986
[5], 1000 nM	–	0.988
[5], 3000 nM	–	1.08
[6], 4.1 nM	–	0.918
[6], 12.3 nM	–	1.04
[6], 37 nM	–	0.934
[6], 111.1 nM	–	0.991
[6], 333.3 nM	–	1.03
[6], 1000 nM	–	0.983
[6], 3000 nM	–	1.06
[7], 4.1 nM	–	0.859
[7], 12.3 nM	–	0.891
[7], 37 nM	–	0.979
[7], 111.1 nM	–	0.92
[7], 333.3 nM	–	0.926
[7], 1000 nM	–	0.886
[7], 3000 nM	–	0.947
[8], 4.1 nM	0.888	–
[8], 12.3 nM	0.449	–
[8], 37 nM	0.462	–
[8], 111.1 nM	0.363	–
[8], 333.3 nM	0.62	–
[8], 1000 nM	0.655	–
[8], 3000 nM	0.745	–
[9], 4.1 nM	1.13	–
[9], 12.3 nM	1.12	–
[9], 37 nM	1.06	–
[9], 111.1 nM	0.721	–
[9], 333.3 nM	0.996	–
[9], 1000 nM	0.59	–
[9], 3000 nM	0.683	–
[10], 4.1 nM	1.01	–
[10], 12.3 nM	0.813	–
[10], 37 nM	0.864	–
[10], 111.1 nM	0.823	–
[10], 333.3 nM	0.782	–
[10], 1000 nM	0.776	–
[10], 3000 nM	0.735	–
[11], 4.1 nM	0.865	–
[11], 12.3 nM	0.469	–
[11], 37 nM	0.691	–
[11], 111.1 nM	0.704	–
[11], 333.3 nM	0.816	–
[11], 1000 nM	0.949	–
[11], 3000 nM	0.985	–
[12], 4.1 nM	0.978	–
[12], 12.3 nM	0.753	–
[12], 37 nM	0.669	–
[12], 111.1 nM	0.8	–
[12], 333.3 nM	0.886	–
[12], 1000 nM	0.675	–
[12], 3000 nM	1.09	–
[13], 4.1 nM	0.79	–
[13], 12.3 nM	0.645	–
[13], 37 nM	0.985	–
[13], 111.1 nM	0.544	–
[13], 333.3 nM	0.513	–
[13], 1000 nM	5.6	–
[13], 3000 nM	0.728	–
[14], 4.1 nM	0.922	–
[14], 12.3 nM	0.62	–
[14], 37 nM	0.718	–
[14], 111.1 nM	0.814	–
[14], 333.3 nM	0.871	–
[14], 1000 nM	0.441	–
[14], 3000 nM	0.507	–

COc1cc(N)c(Cl)cc1C(=O)NC1CCN(CCCOc2ccc(F)cc2)CC1OC (stereo unspecified) [Cisapride]
Details	phenotypic distance	surviving fraction
[1], 4.1 nM	–	1.06
[1], 12.3 nM	–	0.908
[1], 37 nM	–	0.927
[1], 111.1 nM	–	1
[1], 333.3 nM	–	0.996
[1], 1000 nM	–	0.958
[1], 3000 nM	–	0.907
[2], 4.1 nM	–	1.04
[2], 12.3 nM	–	1.03
[2], 37 nM	–	0.956
[2], 111.1 nM	–	1.08
[2], 333.3 nM	–	0.888
[2], 1000 nM	–	0.863
[2], 3000 nM	–	0.846
[3], 4.1 nM	–	1.05
[3], 12.3 nM	–	1.04
[3], 37 nM	–	1.14
[3], 111.1 nM	–	0.921
[3], 333.3 nM	–	1.09
[3], 1000 nM	–	0.963
[3], 3000 nM	–	0.844
[4], 4.1 nM	–	1.04
[4], 12.3 nM	–	1.01
[4], 37 nM	–	0.895
[4], 111.1 nM	–	1
[4], 333.3 nM	–	1.01
[4], 1000 nM	–	0.972
[4], 3000 nM	–	0.67
[5], 4.1 nM	–	1.06
[5], 12.3 nM	–	1.13
[5], 37 nM	–	0.945
[5], 111.1 nM	–	0.906
[5], 333.3 nM	–	1.02
[5], 1000 nM	–	0.971
[5], 3000 nM	–	1.06
[6], 4.1 nM	–	0.957
[6], 12.3 nM	–	0.903
[6], 37 nM	–	1.05
[6], 111.1 nM	–	1.07
[6], 333.3 nM	–	0.967
[6], 1000 nM	–	1.04
[6], 3000 nM	–	0.918
[7], 4.1 nM	–	0.931
[7], 12.3 nM	–	1.1
[7], 37 nM	–	0.992
[7], 111.1 nM	–	1.06
[7], 333.3 nM	–	0.891
[7], 1000 nM	–	1.2
[7], 3000 nM	–	0.907
[8], 4.1 nM	0.873	–
[8], 12.3 nM	0.288	–
[8], 37 nM	0.382	–
[8], 111.1 nM	0.383	–
[8], 333.3 nM	0.399	–
[8], 1000 nM	0.304	–
[8], 3000 nM	0.549	–
[9], 4.1 nM	0.524	–
[9], 12.3 nM	0.638	–
[9], 37 nM	0.752	–
[9], 111.1 nM	0.754	–
[9], 333.3 nM	0.818	–
[9], 1000 nM	0.872	–
[9], 3000 nM	1.14	–
[10], 4.1 nM	0.867	–
[10], 12.3 nM	0.592	–
[10], 37 nM	0.923	–
[10], 111.1 nM	0.547	–
[10], 333.3 nM	1.1	–
[10], 1000 nM	0.901	–
[10], 3000 nM	1.01	–
[11], 4.1 nM	0.443	–
[11], 12.3 nM	0.553	–
[11], 37 nM	0.533	–
[11], 111.1 nM	0.657	–
[11], 333.3 nM	0.557	–
[11], 1000 nM	0.668	–
[11], 3000 nM	0.804	–
[12], 4.1 nM	0.74	–
[12], 12.3 nM	0.611	–
[12], 37 nM	0.666	–
[12], 111.1 nM	0.904	–
[12], 333.3 nM	0.986	–
[12], 1000 nM	0.415	–
[12], 3000 nM	0.914	–
[13], 4.1 nM	0.385	–
[13], 12.3 nM	0.606	–
[13], 37 nM	0.667	–
[13], 111.1 nM	0.47	–
[13], 333.3 nM	0.668	–
[13], 1000 nM	0.946	–
[13], 3000 nM	0.645	–
[14], 4.1 nM	1.16	–
[14], 12.3 nM	0.775	–
[14], 37 nM	1.12	–
[14], 111.1 nM	2.83	–
[14], 333.3 nM	0.576	–
[14], 1000 nM	1.05	–
[14], 3000 nM	0.797	–
